Patent publication US10227331B2 (priority 2015, dated 2019)

Key:
[1] = test system: P. aeruginosa expressing IMP-1, efflux+ (MB9798); format: cell-based, Pseudomonas aeruginosa; settings: for P. aeruginosa expressing IMP-1, efflux+ (MB9798) MITC95: imipenem at 2 μg/mL, in the presence of a class A, C, D serine β-lactamase inhibitor closely related to relebactam; for Efflux ratio: ratio MITC95 PA_9798/MITC95 PA_9799
From the text: (§1) The strain background is Pseudomonas aeruginosa PAO1.

[2] = test system: Serratia marcescens expressing IMP-1 (CL5741); format: cell-based; settings: IMP-1 (CL5741), with imipenem 1 μg/ml, 95% inhibition of bacterial growth
Outline: (§2)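 Clinical strains grown overnight on blood agar, then diluted 1:100 in 1.1× CAMHB and exposed to test compound with imipenem at 1 μg/ml. Incubation was 22–24 h at 35° C; growth was read by absorbance to find the compound concentration restoring imipenem susceptibility.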

[3] = test system: Klebsiella pneumoniae expressing VIM-1 (IHMA599644); format: cell-based; settings: VIM-1 (IHMA599644), with imipenem 1 μg/ml, 95% inhibition of bacterial growth
Outline: as §2

[4] = test system: Escherichia coli expressing NDM-1 (CLB30005, CLB30016); format: cell-based; settings: NDM-1 (CLB30016), with imipenem 1 μg/ml, 95% inhibition of bacterial growth
Outline: as §2

[5] = test system: P. aeruginosa expressing IMP-1, efflux− (MB9799); assay: Efflux: concentration of MBL inhibitor which restores susceptibility to imipenem; format: cell-based, Pseudomonas aeruginosa; settings: imipenem at 2 μg/mL, in the presence of a class A, C, D serine β-lactamase inhibitor closely related to relebactam
From the text: as §1

[6] = target: NDM-1 (Klebsiella pneumoniae, UniProt C7C422); assay: biochemical; format: biochemical; settings: CCF2-FA substrate, 2 hours at 25° C; read-out: NDM-1 IC50
Sequence of NDM-1 (C7C422 whole entry, looked up, species assumed): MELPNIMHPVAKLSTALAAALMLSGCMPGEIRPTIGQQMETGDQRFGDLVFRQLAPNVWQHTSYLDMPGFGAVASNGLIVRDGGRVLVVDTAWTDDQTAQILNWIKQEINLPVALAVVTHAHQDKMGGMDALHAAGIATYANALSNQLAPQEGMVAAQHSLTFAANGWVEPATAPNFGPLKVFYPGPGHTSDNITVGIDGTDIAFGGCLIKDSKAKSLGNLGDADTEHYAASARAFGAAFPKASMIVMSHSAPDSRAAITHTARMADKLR
Outline: (§3)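 Test compound, enzyme and the FRET cephalosporin substrate CCF2-FA are incubated together for 2 hours at 25° C. Cleavage is followed by fluorescence, and IC50 values are derived from semi-logarithmic inhibition curves fitted with a 4-parameter model.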

[7] = target: IMP-1 (Serratia marcescens, UniProt P52699); assay: biochemical; format: biochemical; settings: CCF2-FA substrate, 2 hours at 25° C; read-out: IMP-1 IC50
Sequence of IMP-1 (P52699 whole entry, looked up, species assumed): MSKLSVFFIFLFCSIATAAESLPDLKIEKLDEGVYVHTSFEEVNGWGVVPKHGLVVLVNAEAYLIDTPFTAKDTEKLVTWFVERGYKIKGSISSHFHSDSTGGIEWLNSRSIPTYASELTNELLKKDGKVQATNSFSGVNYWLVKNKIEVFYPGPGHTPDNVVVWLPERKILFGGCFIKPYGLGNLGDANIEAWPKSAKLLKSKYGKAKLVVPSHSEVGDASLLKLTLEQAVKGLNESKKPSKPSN
Outline: as §3

[8] = target: VIM-1 (Pseudomonas aeruginosa (strain ATCC 15692 / DSM 22644 / CIP 104116 / JCM 14847 / LMG 12228 / 1C / PRS 101 / PAO1), UniProt A0A0F7KYQ8); assay: biochemical; settings: CCF2-FA substrate, 2 hours at 25° C
Outline: as §3

NC[C@@H](N)CS(=O)(=O)c1ccc(-c2ccc(N)nc2)c(-c2nn[nH]n2)c1S(N)(=O)=O [Example 371, (R)-3-(6-aminopyridin-3-yl)-6-((2,3-diaminopropyl)sulfonyl)-2-(2H-tetrazol-5-yl) benzenesulfonamide]
P. aeruginosa expressing IMP-1, efflux+ (MB9798) MITC95 [1]: 3.125 µM | Efflux ratio [1]: 2.00 | Serratia marcescens MITC95 [2]: 1.563 µM | Klebsiella pneumoniae MITC95 [3]: 3.125 µM | Escherichia coli MITC95 [4]: 1.563 µM | P. aeruginosa expressing IMP-1, efflux− (MB9799) MITC95 [5]: 1.563 µM | IC50 [6]: 1.16 nM | IC50 [7]: 1.38 nM | IC50 [8]: 1.08 nM

NC[C@H](N)CS(=O)(=O)c1ccc(-c2ccc(N)nc2)c(-c2nn[nH]n2)c1S(N)(=O)=O [Example 372, (S)-3-(6-aminopyridin-3-yl)-6-((2,3-diaminopropyl)sulfonyl)-2-(2H-tetrazol-5-yl) benzenesulfonamide]
P. aeruginosa expressing IMP-1, efflux+ (MB9798) MITC95 [1]: 3.125 µM | Efflux ratio [1]: 2.00 | Serratia marcescens MITC95 [2]: 1.563 µM | Klebsiella pneumoniae MITC95 [3]: 3.125 µM | Escherichia coli MITC95 [4]: 0.7813 µM | P. aeruginosa expressing IMP-1, efflux− (MB9799) MITC95 [5]: 1.563 µM | IC50 [6]: 1.17 nM | IC50 [7]: 1.43 nM | IC50 [8]: 0.992 nM

Nc1nc2c(-c3ccc(S(=O)(=O)C4CNC4)c(S(N)(=O)=O)c3-c3nn[nH]n3)cccc2n1CCO [Example 373, 3-(2-Amino-1-(2-hydroxyethyl)-1H-benzo[d]imidazol-4-yl)-6-(azetidin-3-ylsulfonyl)-2-(2H-tetrazol-5-yl)benzenesulfonamide]
P. aeruginosa expressing IMP-1, efflux+ (MB9798) MITC95 [1]: 1.563 µM | Efflux ratio [1]: 1.00 | Serratia marcescens MITC95 [2]: 1.563 µM | Klebsiella pneumoniae MITC95 [3]: 3.125 µM | Escherichia coli MITC95 [4]: 0.7813 µM | P. aeruginosa expressing IMP-1, efflux− (MB9799) MITC95 [5]: 1.563 µM | IC50 [6]: 0.139 nM | IC50 [7]: 0.409 nM | IC50 [8]: 0.248 nM

Nc1c(NCCO)cccc1-c1ccc(S(=O)(=O)C2CNC2)c(S(N)(=O)=O)c1-c1nn[nH]n1 [Example 374, 2′-Amino-4-(azetidin-3-ylsulfonyl)-3′-((2-hydroxyethyl)amino)-2-(2H-tetrazol-5-yl)-[1,1′-biphenyl]-3-sulfonamide]
P. aeruginosa expressing IMP-1, efflux+ (MB9798) MITC95 [1]: 6.25 µM | Efflux ratio [1]: 2.00 | Serratia marcescens MITC95 [2]: 3.125 µM | Klebsiella pneumoniae MITC95 [3]: 6.25 µM | Escherichia coli MITC95 [4]: 3.125 µM | P. aeruginosa expressing IMP-1, efflux− (MB9799) MITC95 [5]: 3.125 µM | IC50 [6]: 1.42 nM | IC50 [7]: 2.71 nM | IC50 [8]: 2.57 nM

NCCCNC(=O)c1cccc(-c2ccc(S(=O)(=O)CCN)c(S(N)(=O)=O)c2-c2nn[nH]n2)c1N [Example 375, 2-Amino-4′-((2-aminoethyl)sulfonyl)-N-(3-aminopropyl)-3′-sulfamoyl-2′-(2H-tetrazol-5-yl)-[1,1′-biphenyl]-3-carboxamide]
P. aeruginosa expressing IMP-1, efflux+ (MB9798) MITC95 [1]: 1.563 µM | Efflux ratio [1]: 2.00 | Serratia marcescens MITC95 [2]: 1.563 µM | Klebsiella pneumoniae MITC95 [3]: 1.563 µM | Escherichia coli MITC95 [4]: 1.563 µM | P. aeruginosa expressing IMP-1, efflux− (MB9799) MITC95 [5]: 0.7813 µM | IC50 [6]: 2.11 nM | IC50 [7]: 1.71 nM | IC50 [8]: 0.53 nM

NCCS(=O)(=O)c1ccc(-c2cccc(C(=O)N[C@H]3CCNC3)c2N)c(-c2nn[nH]n2)c1S(N)(=O)=O [Example 376, (S)-2-Amino-4′-((2-aminoethyl)sulfonyl)-N-(pyrrolidin-3-yl)-3′-sulfamoyl-2′-(2H-tetrazol-5-yl)-[1,1′-biphenyl]-3-carboxamide]
P. aeruginosa expressing IMP-1, efflux+ (MB9798) MITC95 [1]: 3.125 µM | Efflux ratio [1]: 2.00 | Serratia marcescens MITC95 [2]: 1.563 µM | Klebsiella pneumoniae MITC95 [3]: 1.563 µM | Escherichia coli MITC95 [4]: 3.125 µM | P. aeruginosa expressing IMP-1, efflux− (MB9799) MITC95 [5]: 1.563 µM | IC50 [6]: 2.92 nM | IC50 [7]: 2.58 nM | IC50 [8]: 0.539 nM

NCCS(=O)(=O)c1ccc(-c2cccc(C(=O)N[C@@H]3CCNC3)c2N)c(-c2nn[nH]n2)c1S(N)(=O)=O [Example 377, (R)-2-amino-4′-((2-aminoethyl)sulfonyl)-N-(pyrrolidin-3-yl)-3′-sulfamoyl-2′-(2H-tetrazol-5-yl)-[1,1′-biphenyl]-3-carboxamide]
P. aeruginosa expressing IMP-1, efflux+ (MB9798) MITC95 [1]: 3.125 µM | Efflux ratio [1]: 2.00 | Serratia marcescens MITC95 [2]: 1.563 µM | Klebsiella pneumoniae MITC95 [3]: 3.125 µM | Escherichia coli MITC95 [4]: 1.563 µM | P. aeruginosa expressing IMP-1, efflux− (MB9799) MITC95 [5]: 1.563 µM | IC50 [6]: 1.77 nM | IC50 [7]: 1.88 nM | IC50 [8]: 0.671 nM

NCCNC(=O)c1cccc(-c2ccc(S(=O)(=O)CCN)c(S(N)(=O)=O)c2-c2nn[nH]n2)c1N [Example 378, 2-amino-N-(2-aminoethyl)-4′-((2-aminoethyl)sulfonyl)-3′-sulfamoyl-2′-(2H-tetrazol-5-yl)-[1,1′-biphenyl]-3-carboxamide]
P. aeruginosa expressing IMP-1, efflux+ (MB9798) MITC95 [1]: 1.563 µM | Efflux ratio [1]: 2.00 | Serratia marcescens MITC95 [2]: 0.7813 µM | Klebsiella pneumoniae MITC95 [3]: 1.563 µM | Escherichia coli MITC95 [4]: 0.7813 µM | P. aeruginosa expressing IMP-1, efflux− (MB9799) MITC95 [5]: 0.7813 µM | IC50 [6]: 3.72 nM | IC50 [7]: 5.1 nM | IC50 [8]: 0.544 nM

NC[C@@H](O)CS(=O)(=O)c1ccc(-c2cc(I)cc3[nH]c(N)nc23)c(-c2nn[nH]n2)c1S(N)(=O)=O [Example 379, (R)-6-((3-amino-2-hydroxypropyl)sulfonyl)-3-(2-amino-6-iodo-1H-benzo[d]imidazol-4-yl)-2-(2H-tetrazol-5-yl)benzenesulfonamide]
P. aeruginosa expressing IMP-1, efflux+ (MB9798) MITC95 [1]: 0.3906 µM | Efflux ratio [1]: 0.50 | Serratia marcescens MITC95 [2]: 0.7813 µM | Klebsiella pneumoniae MITC95 [3]: 1.563 µM | Escherichia coli MITC95 [4]: 0.7813 µM | P. aeruginosa expressing IMP-1, efflux− (MB9799) MITC95 [5]: 0.7813 µM | IC50 [6]: 0.0809 nM | IC50 [7]: 0.17 nM | IC50 [8]: 0.123 nM

NCCS(=O)(=O)c1ccc(-c2cccc(NC(=O)[C@H](N)CO)c2)c(-c2nn[nH]n2)c1S(N)(=O)=O [compound 334, (R)-2-amino-N-(4′-((2-aminoethyl)sulfonyl)-3′-sulfamoyl-2′-(2H-tetrazol-5-yl)-[1,1′-biphenyl]-3-yl)-3-hydroxypropanamide]
P. aeruginosa expressing IMP-1, efflux+ (MB9798) MITC95 [1]: 12.5 µM | Efflux ratio [1]: 8.00 | Serratia marcescens MITC95 [2]: 3.125 µM | Klebsiella pneumoniae MITC95 [3]: 3.125 µM | Escherichia coli MITC95 [4]: 1.563 µM | P. aeruginosa expressing IMP-1, efflux− (MB9799) MITC95 [5]: 1.563 µM | IC50 [6]: 2.53 nM | IC50 [7]: 4.54 nM | IC50 [8]: 0.504 nM

NCCNC(=O)c1cc(-c2ccc(S(=O)(=O)CCN)c(S(N)(=O)=O)c2-c2nn[nH]n2)cnc1N [compound 337, 2-amino-N-(2-aminoethyl)-5-(4-((2-aminoethyl)sulfonyl)-3-sulfamoyl-2-(2H-tetrazol-5-yl)phenyl)nicotinamide]
P. aeruginosa expressing IMP-1, efflux+ (MB9798) MITC95 [1]: 6.25 µM | Efflux ratio [1]: 8.00 | Serratia marcescens MITC95 [2]: 1.563 µM | Klebsiella pneumoniae MITC95 [3]: 1.563 µM | Escherichia coli MITC95 [4]: 0.7813 µM | P. aeruginosa expressing IMP-1, efflux− (MB9799) MITC95 [5]: 0.7813 µM | IC50 [6]: 5.65 nM | IC50 [7]: 12.3 nM | IC50 [8]: 4.38 nM
